Results on four compounds are retold here after patent US20240336587A1, “CANNABICHROMENE DERIVATIVES AND METHODS FOR MAKING AND USING THE SAME” (University of Mississippi, priority 2021, published 2024).

Data set [1] deals with inflammatory nociception (acetic acid-induced abdominal writhes) in C57BL/6 mice. Description: Abdominal writhing test (acetic acid-induced writhes). The data set is classed as in vivo. The note with it: mouse; for efficacy in abdominal writhing (racemate, diastereoisomers, CBC vs vehicle): one-way ANOVA post-hoc Bonferroni, FIG. 4A. As for the experimental part:
(§1) CBC and CBC-val-HS were dissolved in a solution of 10% ethanol/10% cremophore and 80% saline. Mice received IP injection of test compounds in a volume of 1.0 ml/kg for the abdominal writhing assay and 1.0 ml/kg, IP in the hot plate assay. For pharmacokinetic studies, drug was given in a volume of 1.0 ml/kg for tail vein and oral gavage administration. CBC-val-HS doses were calculated to be the dose equivalent of CBC.
(§2) All experimental procedures were approved by the University of Mississippi Institutional Animal Care and Use Committee (Protocol #19-009). Animal studies reported in compliance with the ARRIVE guidelines. Male wild-type C57BL/6 mice (7-10 weeks, 17-30 grams) were used for all behavioral studies and Male CD-1 (6-7 weeks, 20-25 grams) were used for all pharmacokinetic studies. Mice were purchased from Envigo, (Indianapolis, IN, USA) and acclimated for one week prior to experimentation. Mice were group-housed (n=4-5) in a polycarbonate tub with soft bedding in a temperature (22°±2) and humidity-controlled vivarium under a normal 12:12 h light/dark cycle (lights on at 06:00) with food and water ad libitum. Behavioral testing was performed during the hours of 08:00-18:00 with 30-minute acclimation to the testing room for all studies. Mice were assigned treatments through random block assignment per cage and experimenters were blinded to treatment conditions. Equipment was thoroughly sanitized with 70% ethanol between mice.
Abdominal writhing testing was used to quantify inflammatory nociception. Testing was conducted in clear, open-top, acrylic observation chambers (12.7×15.24 cm) located on a smooth surface. Test compounds were administered IP 30 minutes prior to behavioral testing. For testing, mice were then given an IP injection of 0.7% acetic acid in a volume of 10.0 ml/1 kg and immediately placed in an observation chamber for 30-minute test. The number of abdominal writhes served as the dependent measure.

For data set [2], the system named is thermal nociception in C57BL/6 mice. Description: Hot plate test (thermal nociception, 52° C.). The data set is classed as in vivo. The note with it: mouse, IP 30 minutes prior; FIG. 4B. As for the experimental part:
as §1
as §2, with “Mice were assigned treatments through random block assignment per cage and experimenters were blinded to treatment conditions. Equipment was thoroughly sanitized with 70% ethanol between mice.” left out
The hot plate (Harvard Instruments, Model #52-8570) was used to quantify thermal nociception. […]
For orientation: In hot-plate and tail-flick tests a longer latency is read as antinociception.

The nature of data set [3]: Pharmacokinetic study, plasma levels by LC-MS-MS. The data set is classed as in vivo, mouse. As for the experimental part:
as §1, §2
A pharmacokinetic study of CBC and CBC-val-HS was conducted using either intraperitoneal (IP), oral gavage, or and intravenous (IV; lateral tail vein) administration routes. For each route, four to five subjects were sacrificed at 0, 0.05, 0.25, 0.5, 1, 2, 4, 8, and 24 hr after drug administration. Mice were anesthetized with isoflurane, and whole blood was collected by cardiac puncture. Plasma was isolated by centrifugation (2000 rpm, 5 min) and stored at −80° C. until assayed.
For CBC in the plasma samples were extracted using solid phase cartridges. CBC-VHS plasma samples were diluted with cold acetonitrile, sonicated, centrifuged, transferred supernatant to another extraction tube, evaporated the solvent and reconstituted with acetonitrile for the analysis. The LC-MS-MS system consists of a Shimadzu Prominence UHPLC with a dual pump, a vacuum solvent micro-degasser, a controlled-temperature auto-sampler, and an MS-MS detector (Applied Biosystems/MSD Sciex QTRAP 4500/3200 with a turbo-ion ESI source operating the positive-ion multiple reaction monitoring, or MRM, mode). […] Deuterated internal standard D3-CBC was used for the quantitation of CBC and CBCVHS. The peak area corresponding to each extracted MRM was measured and correlated to a multiple point calibration curve to determine the plasma concentration of each analyte. […]

The subject of data set [4] is paw edema. To be noted: restricted to high doses of over 100 mg/kg; cited from earlier work.
The subject of data set [5] is intestinal inflammation. The note with it: far lower doses; cited from earlier work.
Data set [6] deals with nociception. To be noted: effect was time-dependent; cited from earlier work.
The conditions of data set [7]: after parenteral administration; cited from earlier work.

Entries after “also recorded” stand apart in the source; their conditions may differ.

Regarding `CCCCCc1cc(OC(=O)C(NC(=O)CCC(=O)O)C(C)C)c2c(c1)OC(C)(CCC=C(C)C)C=C2` (racemic) [CBC-Val-HS, cannabichromene-valinate-hemisuccinate], the “number of acid-induced abdominal writhes” value in data set [1] (increasing doses, IP 30 minutes prior to acetic acid injection, FIG. 2) is given as “significantly decreased”. In data set [1] (IP, two-way ANOVA, drug factor F=1.62, p=0.38), the “overall efficacy or potency in comparison to CBC, abdominal writhing” value is “No differences in overall efficacy or potency; also recorded: equally efficacious”. Further, the “efficacy in abdominal writhing (racemate, diastereoisomers, CBC vs vehicle)” value in data set [1] was “as effective as CBC”. Besides, in data set [2], the “latency to hotplate withdrawal (anti-nociception against thermal pain)” value is reported as “displayed anti-nociceptive potential”. Moreover, in data set [3] (intravenous administration, in the hour following administration, FIG. 3A), the “peak concentration relative to peak concentration of CBC at the same dose equivalent” value is given as “greater than 10 × higher”. The “chemical entity detected in circulating plasma” value in data set [3] (parenteral or oral administration to animals) is given as “the major chemical component detected in the circulating plasma is the intact CBC-Val-HS; also recorded: a majority of CBC-Val-HS remained intact in circulation”. Also, in data set [3] (plasma after administration), the “fraction observed in the plasma as intact CBC-Val-HS” value is given as “two-thirds” and the “fraction of the derivative observed in the plasma as free CBC” value is recorded as “about one-third”.
For the compound `CCCCCc1cc(O)c2c(c1)OC(C)(CCC=C(C)C)C=C2` (centres unmarked) [CBC, Cannabichromene], the “efficacy in abdominal writhing (racemate, diastereoisomers, CBC vs vehicle)” value in data set [1] is reported as “effective”. The “anti-inflammatory / anti-edematous properties in vivo” value in data set [4] is recorded as “mild anti-inflammatory, or anti-edematous properties”. The “activity against intestinal inflammation in vivo” value in data set [5] is given as “protective activity”. Besides, the “anti-nociceptive effect in tail-flick” value in data set [6] is recorded as “biphasic anti-nociceptive effects”.
As for `C=C(C)C1CCC(C)=CC1c1c(OC(=O)[C@@H](NC(=O)CCC(=O)O)C(C)C)cc(CCCCC)cc1OC(=O)[C@@H](NC(=O)CCC(=O)O)C(C)C` (some centres unmarked) [CBD-Val-HS], the “presence of the Val-HS derivative in plasma (comparator cannabinoid derivatives)” value in data set [7] is on record as “the only entity found in the plasma”.
Regarding `CCCCCc1cc(OC(=O)C(NC(=O)CCC(=O)O)C(C)C)c2c(c1)OC(C)(C)C1CCC(C)=CC21` (centres unmarked) [THC-Val-HS], the “presence of the Val-HS derivative in plasma (comparator cannabinoid derivatives)” value in data set [7] is recorded as “not found in plasma”.
